“And” between values parts separate entries of the source, which are not always exact repeats. Equal values may be shown once.
How the values were obtained:
[1] = Particle size of lipid nanoparticle (dynamic light scattering, Malvern Zetasizer); format: physicochemical
From the text: The lipid nanoparticles have a size of about 1 to about 2,500 nm, about 1 to about 1,500 nm, about 1 to about 1,000 nm, in a sub-embodiment about 50 to about 600 nm, in a sub-embodiment about 50 to about 400 nm, in a sub-embodiment about 50 to about 250 nm, and in a sub-embodiment about 50 to about 150 nm. Unless indicated otherwise, all sizes referred to herein are the average sizes (diameters) of the fully formed nanoparticle, as measured by dynamic light scattering on a Malvern Zetasizer. The nanoparticle sample is diluted in phosphate buffered saline (PBS) so that the count rate is approximately 200-400 kcts. The data is presented as a weighted average of the intensity measure. Unless indicated otherwise, all particle size measurements referred to in Tables 4 and 5 are the Z-average particle size of the fully formed nanoparticle, as measured by dynamic light scattering on a Malvern Zetasizer. The nanoparticle sample was diluted in phosphate buffered saline (PBS) so that the count rate is approximately 200-400 kcts.

[2] = Polydispersity index (PDI) of lipid nanoparticle (dynamic light scattering); format: physicochemical
Experimental: Unless indicated otherwise, all PDIs referred to herein are the PDI of the fully formed nanoparticle, as measured by dynamic light scattering on a Malvern Zetasizer. The nanoparticle sample was diluted in phosphate buffered saline (PBS) so that the count rate was approximately 200-400 kcts. The data is presented in Tables 4 and 5 as a weighted average of the intensity measure.

[3] = pKa measurement of cationic lipid (TNS fluorescence); format: physicochemical; details: probe TNS; pKa of the cationic lipid of formula (I); Table 4; read-out: pKa
Experimental: Unless indicated otherwise, all pKa's referred to herein were measured at standard temperature and pressure. Also, unless otherwise indicated, all references to pKa are references to pKa measured using the following technique. 2 mM solution of lipid in ethanol was prepared by weighing the lipid and then dissolving it in ethanol. 0.3 mM solution of fluorescent probe TNS in ethanol:methanol 9:1 was prepared by first making 3 mM solution of TNS in methanol and then diluting to 0.3 mM with ethanol. An aqueous buffer containing 200 mM sodium phosphate dibasic and 100 mM citric acid was prepared. […] Using the Hamilton Microlab Star high throughput liquid handler and Hamilton run control software Software, 7.5 uL of probe/lipid mix were added to 242.5 uL of buffer in a 1 mL 96 well plate (model NUNC 260252, […] Nunc International). This was done with all twelve buffers. After mixing in 1 mL 96 well plate, 100 uL of each probe/lipid/buffer mixture was transferred to a 250 uL black with clear bottom 96 well plate (model COSTAR 3904, Corning). The fluorescence measurements are carried out on the SpectraMax M5 spectrophotometer using software SoftMax pro 5.2 and following parameters: After the measurement, the background fluorescence value of an empty well on the 96 well plate was subtracted from each probe/lipid/buffer mixture. The fluorescence intensity values were then normalized to the value at lowest pH. The normalized fluorescence intensity vs. pH chart was then plotted in the Microsoft Excel software. The twelve points were connected with a smooth line. The point on the line at which the normalized fluorescence intensity was equal to 0.5 was found. […] The pKa determined using this method is precise to about 0.1 pKa units.

[4] = test system: respiratory syncytial virus F protein; assay: Immunization studies, anti-RSV-F titers; format: in vivo; details: anti-RSV-F titer; BALB/c; course A = days 0 & 21; 4 weeks after second dose; liposomes with 0.1 μg vA317 replicon (naked: 1 μg)
Experimental: BALB/c were immunized with liposomes comprising DSPC, cholesterol, and various lipids of the invention (or, for comparison, the cationic lipid 1,2-dilinoleyloxy-N,N-dimethyl-3-aminopropane or ‘DLinDMA’). The liposomes encapsulated 0.1 μg of “vA317” self-replicating RNA replicon which encodes respiratory syncytial virus F protein (see WO2012/031043). […] Doses were given either on days 0 & 21 or days 0 & 42. Immune responses were assessed 2 weeks after each dose (2wp1, 2wp2), and in some cases also at 4 weeks after the second dose (4wp2).

[5] = test system: plasma Factor VII enzyme activity; assay: Mouse Factor VII dosing / Factor VII Activity Assay; format: in vivo; details: percent knock down of plasma Factor VII activity, CD-1 mice, 48 h; for KD FVII 0.03 mg/kg: single IV dose 0.03 mg/kg; for KD FVII 0.3 mg/kg: single IV dose 0.3 mg/kg
Experimental: Female CD-1 mice were received from Harlan Labs and maintained on standard lab chow and water ad libitum. The animals weighed approximately 25 grams at time of dosing. Formulated Factor VII siRNA was administered as a single dose intravenously via the lateral tail vein. Approximately 48 hours after injection, the mice were euthanized by CO2 inhalation followed by exsanguination through the vena cava. […] Plasma collected from injected mice was assayed for Factor VII enzyme activity using the Biophen FVII kit from Hyphen Biomedical (catalog number 221304). An assay standard curve was prepared using pooled plasma aliquots from the vehicle control animals. All samples were diluted to fall within the linear range of the standard curve and Factor VII activity relative to control plasma was reported. Lipid nanoparticles comprising lipid compounds of formula (I) and the FVII siRNA duplex sequence listed above were tested in the Factor VII Activity Assay. The results of this assay are given in Table 4 below as a percent knock down of plasma Factor VII enzyme activity at a dose of 0.3 mg/kg and 0.03 mg/kg.

[6] = FVII siRNA LNP, Chol/DSPC/S010, molar ratio 45/44/9/2, Z-average
[7] = FVII siRNA LNP, Chol/DSPC/S010, molar ratio 45/44/9/2
[8] = PLK1-424 siRNA LNP, Chol/DSPC/S010 45/44/9/2
[9] = LNP Chol/DSPC/PEG-DMG 45/44/9/2

## CCCCC/C=C\C/C=C\CCCCCCCC(=O)OCCCOc1cc(CN(C)C)cc(OCCCOC(=O)CC(CCCCCCCC)CCCCCCCC)c1 [Ex. 97, (9Z,12Z)-3-(3-((dimethylamino)methyl)-5-(3-((3-octylundecanoyl)oxy)propoxy)phenoxy)propyl octadeca-9,12-dienoate]
[1]; [6]
  Size (nm): 98.01 nm
[2]; [7]
  PDI: 0.106

## CCCCC/C=C\C/C=C\CCCCCCCCOC(=O)CCC(=O)OCc1cc(COC(=O)CCC(=O)OCCCCCCCC/C=C\C/C=C\CCCCC)cc(CN(C)C)c1 [Example 77, O,O′-((5-((dimethylamino)methyl)-1,3-phenylene)bis(methylene))di((9Z,12Z)-octadeca-9,12-dien-1-yl)disuccinate]
[1]; [6]
  Size (nm): 154.1 nm
[2]; [7]
  PDI: 0.014

## CCCCC/C=C\CC=CCCCCCCCC(=O)OCCCCOc1cc(CN(C)C)cc(OCCCCOC(=O)CCCCCCCC=CC/C=C\CCCCC)c1C [Example 51, (9Z,9′Z,12Z,12′Z)-((5-((dimethylamino)methyl)-2-methyl-1,3-phenylene)bis(oxy))bis(butane-4,1-diyl)bis(octadeca-9,12-dienoate)]
[3]
  pKa: 5.91

## CCCCC/C=C\C/C=C\CCCCCCCC(=O)OCCCCOc1cc(CCCN2CCOCC2)cc(OCCCCOC(=O)CCCCCCC/C=C\C/C=C\CCCCC)c1 [Ex. 122, (9Z,9′Z,12Z,12′Z)-((5-(3-morpholinopropyl)-1,3-phenylene)bis(oxy))bis(butane-4,1-diyl)bis(octadeca-9,12-dienoate)]
[3]
  pKa: 5.06

## CCCCCCCC(=O)OCC(COC(=O)CCCCCCC)OC(=O)CCC(=O)OCc1cc(COC(=O)CCC(=O)OC(COC(=O)CCCCCCC)COC(=O)CCCCCCC)cc(CN(C)C)c1 [Ex. 107, bis(1,3-bis(octanoyloxy)propan-2-yl) O,O′-((5-((dimethylamino)methyl)-1,3-phenylene)bis(methylene))disuccinate]
[1]; [6]
  Size (nm): 191.7 nm
[2]; [7]
  PDI: 0.071

## CCCCC/C=C\C/C=C\CCCCCCCCOc1cc(COC(=O)CCN(C)C)cc(OCCCCCCCC/C=C\C/C=C\CCCCC)c1 [Example 14, 3,5-bis((9Z,12Z)-octadeca-9,12-dien-1-yloxy)benzyl 3-(dimethylamino)propanoate]
[1]; [6]
  Size (nm): 81.74 nm
[2]; [7]
  PDI: 0.059
[4]
  4wp2 pool 1: 13687 and 21375
  4wp2 pool 2: 18851 and 21347

## CCCCCCCCOC(=O)CCCCCCCC(=O)OCCCOc1cc(CN(C)C)cc(OCCCOC(=O)CCCCCCCC(=O)OCCCCCCCC)c1 [Ex. 98, O′^1,O^1-(((5-((dimethylamino)methyl)-1,3-phenylene)bis(oxy))bis(propane-3,1-diyl)) 9-dioctyl dinonanedioate]
[1]; [6]
  Size (nm): 164.6 nm
[2]; [7]
  PDI: 0.096

## CCCCCCCC/C=C\CCCCCCCCOc1cc(CN(C)C)cc(OCCCCCCCC/C=C\CCCCCCCC)c1 [Example 1, 1-(3,5-bis((Z)-octadec-9-en-1-yloxy)phenyl)-N,N-dimethylmethanamine]
[1]; FVII siRNA LNP, Chol/DSPC/PEG-DMG, molar ratio 45/44/9/2, Z-average
  Size (nm): 98.2 nm
[1]; [6]
  Size (nm): 87.16 nm
[1]; [8]
  Size (nm): 74.56 nm
[2]; FVII siRNA LNP, Chol/DSPC/PEG-DMG, molar ratio 45/44/9/2
  PDI: 0.05
[2]; [7]
  PDI: 0.124
[2]; [8]
  PDI: 0.152
[5]; LNP Chol/DSPC/S010 45/44/9/2
  KD FVII 0.03 mg/kg: 30.8%
[5]; [9]
  KD FVII 0.3 mg/kg: 75.1%

## CCCCC/C=C\C/C=C\CCCCCCCC(=O)OCCCCOc1cc(CN(CC)CC)cc(OCCCCOC(=O)CCCCCCC/C=C\C/C=C\CCCCC)c1C [Example 55, (9Z,9′Z,12Z,12′Z)-((5-((diethylamino)methyl)-2-methyl-1,3-phenylene)bis(oxy))bis(butane-4,1-diyl)bis(octadeca-9,12-dienoate)]
[5]; [9]
  KD FVII 0.3 mg/kg: 98.0%

## CCCCC/C=C\C/C=C\CCCCCCCC(=O)OCCOc1cc(CN(C)C)cc(OCCOC(=O)CCCCCCC/C=C\C/C=C\CCCCC)c1 [Example 40, (9Z,9′Z, 12Z, 12′Z)-((5-((dimethylamino)methyl)-1,3-phenylene)bis(oxy))bis(ethane-2,1-diyl)bis(octadeca-9,12-dienoate)]
[5]; LNP Chol/DSPC/S010 45/44/9/2
  KD FVII 0.03 mg/kg: 8.2%
[5]; [9]
  KD FVII 0.3 mg/kg: 89.8%

## CCCCC/C=C\C/C=C\CCCCCCCCOc1cc(COC(=O)CCN(C)C)cc(OCCCCCCCC/C=C\C/C=C\CCCCC)n1 [Example 31, (2,6-bis((9Z,12Z)-octadeca-9,12-dien-1-yloxy)pyridin-4-yl)methyl 3-(dimethylamino)propanoate]
[1]; [6]
  Size (nm): 81.16 nm
[2]; [7]
  PDI: 0.049

## CCCCC/C=C\C/C=C\CCCCCCCC(=O)OCCCCOc1cc(CN2CCCC2)cc(OCCCCOC(=O)CCCCCCC/C=C\C/C=C\CCCCC)c1 [Ex. 112, (9Z,9′Z,12Z,12′Z)-((5-(pyrrolidin-1-ylmethyl)-1,3-phenylene)bis(oxy))bis(butane-4,1-diyl)bis(octadeca-9,12-dienoate)]
[5]; [9]
  KD FVII 0.03 mg/kg: 86%

## CCCCCCCCCC(=O)OCCCCCCCC(=O)OCc1cc(COC(=O)CCCCCCCOC(=O)CCCCCCCCC)cc(CN(C)C)c1 [Example 83]
[1]; [6]
  Size (nm): 128.5 nm
[2]; [7]
  PDI: 0.005

## CCCCC/C=C\C/C=C\CCCCCCCC(=O)OCCCCOc1cc(CN(C)C)cc(OCCCCOC(=O)CC(CCCCCCCC)CCCCCCCC)c1 [Ex. 109, (9Z,12Z)-4-(3-((dimethylamino)methyl)-5-(4-((3-octylundecanoyl)oxy)butoxy)phenoxy)butyl octadeca-9,12-dienoate]
[1]; [6]
  Size (nm): 91.98 nm
[2]; [7]
  PDI: 0.09
[5]; LNP Chol/DSPC/S010 45/44/9/2
  KD FVII 0.03 mg/kg: 68.97%

## CCCCCCCCCCCCC(=O)OCc1cc(COC(=O)CCCCCCCCCCCC)cc(CN(C)C)c1 [Example 34, (5-((dimethylamino)methyl)-1,3-phenylene)bis(methylene)ditridecanoate]
[5]; [9]
  KD FVII 0.3 mg/kg: 0%

## CCCCCCCCCCCCCC(=O)OCCCCOc1cc(CN(C)C)cc(OCCCCOC(=O)CCCCCCCCCCCCC)c1 [Example 61, ((5-((dimethylamino)methyl)-1,3-phenylene)bis(oxy))bis(butane-4,1-diyl)ditetradecanoate]
[5]; LNP Chol/DSPC/S010 45/44/9/2
  KD FVII 0.03 mg/kg: 0%

## CCCCC/C=C\C/C=C\CCCCCCCCOC(=O)CCCCOc1cc(CN(C)C)cc(OCCCCC(=O)OCCCCCCCC/C=C\C/C=C\CCCCC)c1 [Example 89, di((9Z,12Z)-octadeca-9,12-dien-1-yl) 5,5′-((5-((dimethylamino)methyl)-1,3-phenylene)bis(oxy))dipentanoate]
[1]; [6]
  Size (nm): 101.5 nm
[2]; [7]
  PDI: 0.076

— patent publication US10124065B2, “Lipids and lipid compositions for the delivery of active agents” (Novartis AG, priority 2013, dated 2018)
